# Experimental data taken from patent US20030129224A1, “Lipid carrier compositions and methods for improved drug retention” (priority 2001, published 2003).
# Assays:
# [1] = Daunorubicin retention in liposomes in blood after intravenous injection (time course); format: in vivo, Balb/c mice; settings: low-cholesterol liposomes DSPC/DSPE-PEG2000 (95:5); citrate 600 mOsm/kg (300 mM) in relation to 300 mOsm/kg (150 mM); i.v.; 1, 4, 24 h
# Procedure: DSPC/DSPE-PEG2000 liposomes (95:5 mole ratio) containing 150 or 300 mM citrate (300 or 600 mOsm/kg), pH 4 and DSPC/Cholesterol (55:45 mole ratio) and DSPC/Cholesterol/DSPE-PEG2000 (50:45:5 mole ratio) liposomes containing 150 mM citrate, pH 4 were prepared as described in Example 1. Liposomes were subsequently combined with daunorubicin at a 0.2:1 drug to lipid mole ratio. To facilitate drug loading, the mixtures were incubated at 40° C. for 60 minutes.
# The resulting daunorubicin-containing liposomes were administered to Balb/c female mice at a lipid dose of 165 μmoles/kg as detailed above. Blood samples were removed at 1, 4 and 24 hours post administration by cardiac puncture (3 mice per time point). Lipid levels were determined by liquid scintillation counting. Daunorubicin was extracted from plasma samples and quantified as follows: a defined volume of plasma was adjusted to 200 μL with distilled water followed by addition of 600 μL of distilled water, 100 μL of 10% SDS and 100 μL of 10 mM H2SO4. This solution was mixed and 2 mLs of 1:1 isopropanol/chloroform was added followed by vortexing. […] The bottom organic layer was removed and assayed for fluorescence intensity at 500 nm as the excitation wavelength (2.5 nm bandpass) and 550 nm as an emission wavelength (10 nm bandpass) and using an absorbance wavelength of 480 nm.
# [2] = Daunorubicin retention 4 hours after intravenous injection, varying internal citrate; format: in vivo, Balb/c mice; settings: DSPC/DSPE-PEG2000 (95:5); 100, 150 and 200 mM internal citrate (about 200, 300, 400 mOsm/kg), versus 250 and 300 mM; 4 hours after i.v.
# Procedure: Daunorubicin was loaded at a 0.2:1 drug-to-lipid mole ratio with the methods detailed above into each of the five liposomal formulations. The resulting liposomes were administered to female Balb/c mice at a lipid dose of 165 μmoles/kg in a final volume of 200 μL immediately after preparation (within 1-2 hrs). Blood samples were removed 4 hours after administration by cardiac puncture (3 mice per time point). Lipid and daunorubicin levels were determined as described previously and percent initial drug-to-lipid ratio was reported as the mean±SD.
# [3] = Idarubicin retention in liposomes in blood after intravenous injection; format: in vivo, Balb/c mice; settings: cholesterol-free DSPC/DSPE-PEG2000 (95:5); 300 mM citrate (>500 mOsm/kg) in relation to 100 and 150 mM (<500 mOsm/kg); i.v.; 0.5-24 h
# Procedure: DSPC/DSPE-PEG2000 (95:5 mole ratio) liposomes containing the non-exchangeable marker ^3H-CHE were prepared as described in Example 1, except that lipid films were hydrated with 100, 150, 200, 250 or 300 mM citrate, pH 4.0 (corresponding to osmolarity levels of about 200, 300, 400, 500 or 600 mOsm/kg, respectively).
# DSPC/DSPE-PEG2000 (95:5 mole ratio) liposomes prepared with 100, 150 and 300 mM citrate were also loaded with idarubicin at a drug to lipid mole ratio of 0.25:1. Loading was facilitated by incubating the drug and liposomes at 37° C. for 60 minutes. Liposomes were administered to Balb/c mice as indicated and blood samples were removed by cardiac puncture at 0.5, 1, 2, 4 and 24-hours post administration (3 mice per time point). Idarubicin concentration was quantitated using fluorescence intensity at 485 nm as the excitation wavelength and 535 nm as an emission wavelength and using an absorbance wavelength of 482 nm.
# [4] = Freeze/thaw stability of DSPC/DSPG liposomes (drug-to-lipid ratio and size) at -20 or -70 C for 24 hours; format: physicochemical; settings: 0-20 mole % cholesterol, 250 mM CuSO4 internal, frozen at -20 C and -70 C for 24 hours
# Procedure: FUDR and irinotecan were loaded into cholesterol-free liposomes containing a low osmolarity internal solution and drug retention and liposome size were measured prior to and after freezing. DSPC/DSPG liposomes containing 0-20 mole % cholesterol, 20 mole % DSPG and passively entrapped FUDR were prepared as described previously and hydrated in 250 mM CuSO4 (<500 mOsm/kg). The MLVs were extruded at 70° C. as detailed above and buffered exchanged into saline and then into 300 mM sucrose, 20 mM Hepes, 30 mM EDTA (SHE), pH 7.4 using a hand-held tangential flow column. The sample was then further exchanged into 300 mM sucrose, 20 mM Hepes, pH 7.4 to remove residual EDTA. The liposomes were subsequently loaded with irinotecan at a drug-to-lipid mole ratio of 0.1:1 by mixing the two solutions at 50° C. for five minutes. The dual-loaded liposomes were then buffered exchanged into HBS using tangential flow to remove any unencapsulated drug.
# The influence of freezing on liposome stability was determined by freezing the liposomes at either −20° C. or −70° C. for 24 hours. […] Lipid and FUDR levels were quantified using liquid scintillation and absorbance at 370 nm was used to determine irinotecan concentration. Particle sizing of the liposomes was also determined prior to and after freezing using quasi-elastic light scattering.
# [5] = Vincristine retention in liposomes in blood after intravenous injection of Balb/c mice; format: in vivo; settings: i.v., 1, 4, 24 h
# Procedure: Solutions of lipids in chloroform were combined to give a 95:5 molar ratio of DSPC/DSPE-PEG2000 or a 55:45 molar ratio of DSPC/Cholesterol, with trace amounts of ^14C-cholesteryl hexadecyl ether (^14C-CHE). The resulting mixtures were dried under a stream of nitrogen gas and placed in a vacuum pump overnight. The samples were hydrated at 70° C. with either 300 mM citrate, pH 4.0 (about 600 milliosmoles/kg (mOsm/kg)) or 150 mM citrate buffer, pH 4.0 (about 300 mOsm/kg) and passed through an extrusion apparatus (Northern Lipids Inc., Vancouver, BC) ten times with two 100 nm pore size polycarbonate filters at 70° C. Average liposome size was determined by quasi-elastic light scattering using a NICOMP 370 submicron particle sizer operating at a wavelength of 632.8 nm. The resulting liposomes were applied to a Sephadex G50 column equilibrated with HBS (20 mM HEPES, 150 mM NaCl, about 320 mOsm/kg), pH 7.45 to exchange the external liposomal buffer. […]
# Vincristine-containing liposomes were administered intravenously to Balb/c mice at a lipid dose of 165 μmoles/kg in a final volume of 200 μL immediately after preparation (within 1-2 hrs). […] Lipid and vincristine levels were quantified by liquid scintillation counting and the values were reported as the mean±standard deviation (SD).
compound,measurement,setting,value
COc1cccc2c1C(=O)c1c(O)c3c(c(O)c1C2=O)C[C@@](O)(C(C)=O)C[C@@H]3O[C@H]1C[C@H](N)[C@H](O)[C@H](C)O1 [daunorubicin],daunorubicin retention (percent initial daunorubicin-to-lipid ratio remaining in the blood),[1],compromised
same,retention of daunorubicin (percent initial drug-to-lipid ratio in the blood),[2],optimal retention
CC(=O)[C@]1(O)Cc2c(O)c3c(c(O)c2[C@@H](O[C@H]2C[C@H](N)[C@H](O)[C@H](C)O2)C1)C(=O)c1ccccc1C3=O [idarubicin],idarubicin retention (idarubicin-to-lipid mole ratio in the blood),[3],significantly decreased
CCc1c2c(nc3ccc(OC(=O)N4CCC(N5CCCCC5)CC4)cc13)-c1cc3c(c(=O)n1C2)COC(=O)[C@]3(O)CC [irinotecan],retention of irinotecan after freezing (drug-to-lipid ratio),[4],effectively retained
CC[C@]1(O)C[C@H]2CN(CCc3c([nH]c4ccccc34)[C@@](C(=O)OC)(c3cc4c(cc3OC)N(C=O)[C@H]3[C@@](O)(C(=O)OC)[C@H](OC(C)=O)[C@]5(CC)C=CCN6CC[C@]43[C@@H]65)C2)C1 [vincristine],retention of vincristine (percent initial vincristine-to-lipid weight ratio in the blood),"[5]; cholesterol containing liposomes DSPC/cholesterol (55:45), 150 vs 300 mM citrate",independent of the osmolarity of the intraliposomal solution
same,retention of vincristine (percent initial vincristine-to-lipid weight ratio in the blood),"[5]; low-cholesterol liposomes DSPC/DSPE-PEG2000 (95:5), internal citrate 300 mOsm/kg (150 mM) compared to 600 mOsm/kg (300 mM)",significantly enhanced
